Measured values reported in patent US10688093B2, “Methods, compositions, and uses of novel Fyn kinase inhibitors” (priority 2015, dated 2020).
pIC50: −log10 of the molar value.

Target: full-length recombinant human FYN A (Homo sapiens (Human), UniProt P06241)
Test: ADP-Glo Kinase Assay of FYN kinase inhibition
Format: biochemical
Summary of the method: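 GST-tagged full-length FYN A (baculovirus, Sf9) at 3 pg preincubated 30 min RT with compound (10-point 3-fold series from 10 μM) in Tris pH 7.5/MgCl2 buffer. 12-mer tyrosine peptide plus 12.5 pmol ATP added, 90 min RT; ADP measured by ADP-Glo luminescence, IC50 from dose-response.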

[1] = secondary screen, re-synthesized and expanded compounds
[2] = primary screen, initial compounds

Sequence of full-length recombinant human FYN A (P06241 whole entry): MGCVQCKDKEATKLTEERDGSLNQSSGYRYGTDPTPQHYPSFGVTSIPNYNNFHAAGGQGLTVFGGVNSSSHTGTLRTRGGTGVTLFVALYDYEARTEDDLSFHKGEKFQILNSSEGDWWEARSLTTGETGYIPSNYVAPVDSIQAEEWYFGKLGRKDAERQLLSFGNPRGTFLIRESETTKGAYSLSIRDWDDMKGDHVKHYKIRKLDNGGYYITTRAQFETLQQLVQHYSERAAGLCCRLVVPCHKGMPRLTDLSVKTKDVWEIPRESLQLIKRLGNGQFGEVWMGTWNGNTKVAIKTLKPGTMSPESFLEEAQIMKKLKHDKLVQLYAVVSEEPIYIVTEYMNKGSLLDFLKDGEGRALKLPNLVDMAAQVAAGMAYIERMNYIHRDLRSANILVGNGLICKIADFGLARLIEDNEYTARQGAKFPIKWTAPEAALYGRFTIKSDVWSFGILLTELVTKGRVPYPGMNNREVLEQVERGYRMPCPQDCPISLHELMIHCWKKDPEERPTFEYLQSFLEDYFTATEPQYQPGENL

SMILES | pIC50 [1] | pIC50 [2]
COc1cc(-c2cnc3ccc(-c4ccc(OC)c(OC)c4)nn23)ccc1O [BF000726453, 4-[6-(3,4-dimethoxy-phenyl)-imidazo[l,2-b]pyridazin-3-yl]-2-methoxy-phenol] | 7.40 | –
COc1cc(-c2cnc3ccc(-c4cccc(NC(C)=O)c4)nn23)ccc1O [BF000726454, N-[3-[3-(4-hydroxy-3-methoxy-phenyl)-imidazo[1,2-b]pyridazin-6-yl]phenyl]-acetamide] | 6.98 | –
COc1cncc(-c2cnc3sc(NC4CCC(O)CC4)nn23)c1 (centres unmarked) [BF000802724, 4-[[5-(5-methoxy-3-pyridyl)-imidazo[2,1-b][1,3,4]-thiadiazol-2-yl]amino]-cyclohexanol] | 6.52 | –
CC(C)[C@@H](CO)Nc1ccc2ncc(-c3ccncc3)n2n1 [BF000817097, (2S)-3-methyl-2-[[3-(4-pyridyl)-imidazo[1,2-b]pyridazin-6-yl]amino]-butan-1-ol] | 6.20 | –
CC(=O)c1cccc(-c2cnc3ccc(NCCCO)nn23)c1 [BF000817098, 1-[3-[6-(3-hydroxy-propyl-amino)-imdazo[1,2-b]pyridazin-3-yl]phenyl]-ethanone] | 6.19 | –
CC(=O)Nc1cccc(-c2cnc3ccc(-c4ccncc4)nn23)c1 [BF000817142, N-[3-[6-(4-pyridyl)-imidazo[1,2-b]pyridazin-3-yl]phenyl]-acetamide] | 6.13 | –
COc1cc(-c2cnc3ccc(-c4ccncc4)nn23)ccc1O [BF000817169, 2-methoxy-4-[6-(4-pyridyl)-imidazo[1,2-b]pyridazin-3-yl]phenol] | 7.10 | –
COc1cc(-c2ccc3ncc(-c4ccc(O)c(OC)c4)n3n2)ccc1O [BF000817186, 4-[3-(4-hydroxy-3-methoxy-phenyl)-imidazo[1,2-b]pyridazin-6-yl]-2-methoxy-phenol] | 7.53 | –
OCc1cccc(-c2ccc3ncc(-c4cccc(CO)c4)n3n2)c1 [BF000817188, [3-[3-[3-(hydroxy-methyl)-phenyl]-imidazo[1,2-b]pyridazin-6-yl]phenyl]-methanol] | 6.08 | –
COc1ccc(-c2cnc3sc(NCC4CCOCC4)nn23)cc1OC [BF000817208, 5-(3,4-dimethoxy-phenyl)-N-(tetra-hydropyran-4-ylmethyl)-imidazo[2,1-b][1,3,4]-thiadiazol-2-amine] | 5.99 | –
c1csc(-c2cn3c(-c4ccncc4)cnc3cn2)c1 [Compound 198, 3-(4-pyridyl)-6-(2-thienyl)imidazo [1,2-a]pyrazine] | – | 5.25
Oc1ccc(-c2cn3c(-c4ccsc4)cnc3cn2)cc1 [Compound 199, 4-[3-(3-thienyl)imidazo [1,2-a]pyrazin-6-yl]phenol] | – | 5.57
c1csc(-c2cn3c(-c4ccsc4)cnc3cn2)c1 [Compound 200, 6-(2-thienyl)-3-(3-thienyl)imidazo [1,2-a]pyrazine] | – | 5.65
CC(=O)Nc1cccc(-c2cn3c(-c4ccsc4)cnc3cn2)c1 [Compound 201, N-[3-[3-(3-thienyl)imidazo [1,2-a]pyrazin-6-yl]phenyl] acetamide] | – | 5.63
CS(=O)(=O)Nc1cccc(-c2cn3c(-c4ccsc4)cnc3cn2)c1 [Compound 202, N-[3-[3-(3-thienyl)imidazo [1,2-a]pyrazin-6-yl]phenyl] methane-sulfonamide] | – | 5.48
c1coc(-c2cn3c(-c4ccsc4)cnc3cn2)c1 [Compound 203, 6-(2-furyl)-3-(3-thienyl)imidazo [1,2-a]pyrazine] | – | 5.20
Oc1cccc(-c2cnc3cnc(-c4ccccc4)cn23)c1 [Compound 204, 3-(6-phenylimidazo [1,2-a]pyrazin-3-yl)phenol] | – | 5.18
NC(=O)c1cccc(-c2cn3c(-c4cccc(O)c4)cnc3cn2)c1 [Compound 205, 3-[3-(3-hydroxyphenyl)imidazo[1,2-a]pyrazin-6-yl]benzamide] | – | 5.80

SMILES | pIC50 [1] | pIC50 [2]
Oc1ccc(-c2cnc3cnc(-c4cccnc4)cn23)cc1 [Compound 206, 4-[6-(3-pyridyl)imidazo [1,2-a]pyrazin-3-yl]phenol] | – | 5.56
OCc1ccc(-c2cn3c(-c4ccc(Oc5ccccc5)cc4)cnc3cn2)cc1 [Compound 207] | – | 5.33
Oc1ccc(-c2cnc3cnc(-c4ccc(Cl)cc4)cn23)cc1 [Compound 208, 4-[6-(4-chlorophenyl)imidazo[1,2-a]pyrazin-3-yl]phenol] | – | 5.20
Oc1cccc(-c2cnc3cnc(-c4cccs4)cn23)c1 [Compound 209, 3-[6-(2-thienyl)imidazo [1,2-a]pyrazin-3-yl]phenol] | – | 5.56
Cn1cc(-c2cn3c(-c4ccc(Oc5ccccc5)cc4)cnc3cn2)cn1 [Compound 210, 6-(1-methylpyrazol-4-yl)-3-(4-phenoxyphenyl) imidazo[1,2-a]pyrazine] | – | 5.71
Oc1cccc(-c2cnc3cnc(-c4ccco4)cn23)c1 [Compound 211, 3-[6-(2-furyl)imidazo [1,2-a]pyrazin-3-yl]phenol] | – | 5.21
COc1ccc(-c2cn3c(-c4ccc(O)cc4)cnc3cn2)cn1 [Compound 212, 4-[6-(6-methoxy-3-pyridyl)imidazo [1,2-a]pyrazin-3-yl]phenol] | – | 5.70
OCc1ccc(-c2cn3c(-c4cccc(O)c4)cnc3cn2)cc1 [Compound 213, 3-[6-[4-(hydroxymethyl)phenyl]imidazo [1,2-a]pyrazin-3-yl]phenol] | – | 5.47
Cn1cc(-c2cn3c(-c4cccc(O)c4)cnc3cn2)cn1 [Compound 214, 3-[6-(1-methylpyrazol-4-yl)imidazo[1,2-a]pyrazin-3-yl]phenol] | – | 5.56
Cn1cc(-c2cn3c(-c4ccc(O)cc4)cnc3cn2)cn1 [Compound 215, 4-[6-(1-methylpyrazol-4-yl)imidazo[1,2-a]pyrazin-3-yl]phenol] | – | 5.80
CN1CCN(c2ccc(-c3cn4c(-c5ccc(Oc6ccccc6)cc5)cnc4cn3)cn2)CC1 [Compound 216, 6-[6-(4-methylpiperazin-1-yl)-3-pyridyl]-3-(4-phenoxyphenyl) imidazo[1,2-a]pyrazine] | – | 5.67
O=C(NCCO)c1cccc(-c2cn3c(-c4ccc(Oc5ccccc5)cc4)cnc3cn2)c1 [Compound 217, N-(2-hydroxyethyl)-3-[3-(4-phenoxyphenyl)imidazo[1,2-a]pyrazin-6-yl]benzamide] | – | 5.83
CN(C)CCNC(=O)c1ccc(-c2cn3c(-c4ccc(Oc5ccccc5)cc4)cnc3cn2)cc1 [Compound 218, N-(2-dimethylamino-ethyl)-4-[3-(4-phenoxyphenyl)imidazo[1,2-a]pyrazin-6-yl]benzamide] | – | 6.78
O=C(NCCO)c1ccc(-c2cn3c(-c4ccc(Oc5ccccc5)cc4)cnc3cn2)cc1 [Compound 219, N-(2-hydroxyethyl)-4-[3-(4-phenoxyphenyl)imidazo[1,2-a]pyrazin-6-yl]benzamide] | – | 6.21
CN(C)CCCNC(=O)c1ccc(-c2cn3c(-c4cccc(Cl)c4)cnc3cn2)cc1 [Compound 220, 4-[3-(3-chlorophenyl)imidazo[1,2-a]pyrazin-6-yl]-N-[3-(dimethylamino)propyl]benzamide] | – | 5.07
Nc1ccc(-c2cn3c(-c4ccc(Oc5ccccc5)cc4)cnc3cn2)cn1 [Compound 221, 5-[3-(4-phenoxyphenyl)imidazo[1,2-a]pyrazin-6-yl]pyridin-2-amine] | – | 5.76
CN(C)CCCNC(=O)c1ccc(-c2cn3c(-c4ccsc4)cnc3cn2)cc1 [Compound 222, N-[3-(dimethylamino)propyl]-4-[3-(3-thienyl)imidazo [1,2-a]pyrazin-6-yl]benzamide] | – | 5.41
COc1ccc(-c2cnc3cnc(-c4ccc(N5CCN(C)CC5)cc4)cn23)cc1 [Compound 223, 3-(4-methoxyphenyl)-6-[4-(4-methyl-piperazin-1-yl)phenyl] imidazo[1,2-a]pyrazine] | – | 5.28

Other lines, results leading:

pIC50 [1] | pIC50 [2] | SMILES
6.54 | – | CC(=O)c1cccc(-c2cnc3ccc(-c4cccc(CO)c4)nn23)c1 [BF000726471, 1-[3-[6-[3-(hydroxy-methyl)-phenyl]-imidazo[1,2-b]pyridazin-3-yl]phenyl]-ethanone]
7.21 | – | COc1cc(-c2cnc3ccc(-c4ccc(CO)cc4)nn23)ccc1O [BF000726486, 4-[6-[4-(hydroxy-methyl)-phenyl]-imidazo[1,2-b]pyridazin-3-yl]-2-methoxy-phenol]
7.20 | – | COc1cc(-c2cnc3ccc(-c4cccc(CO)c4)nn23)ccc1O [BF000726487, 4-[6-[3-(hydroxy-methyl)-phenyl]-imidazo[1,2-b]pyridazin-3-yl]-2-methoxy-phenol]
6.61 | – | CN(C)CCCNC(=O)c1ccc(-c2cn3c(-c4ccc(Oc5ccccc5)cc4)cnc3cn2)cc1 [BF000816927, N-[3-(dimethyl-amino)-propyl]-4-[3-(4-phenoxy-phenyl)imidazo[1,2-a]pyrazin-6-yl]benzamide]
6.57 | – | c1cc(-c2cnc3ccc(NC4CCOCC4)nn23)ccn1 [BF000817099, 3-(4-pyridyl)-N-tetrahydro-pyran-4-yl-imidazo[1,2-b]pyridazin-6-amine]
6.77 | – | c1ccc(CNc2ccc3ncc(-c4ccncc4)n3n2)nc1 [BF000817170, 3-(4-pyridyl)-N-(2-pyridyl-methyl)-imidazo[1,2-b]pyridazin-6-amine]
7.07 | – | COc1cc(-c2cnc(N)c(-c3cc(OC)c(OC)c(OC)c3)c2)cc(OC)c1OC [BF000817175, 3,5-bis(3,4,5-trimethoxy-phenyl)-pyridin-2-amine]
7.11 | – | COc1cc(-c2cc(-c3ccc(N4CCN(C(C)C)CC4)cc3)cnc2N)ccc1O [BF000817185]
6.36 | – | CC(=O)Nc1cccc(-c2cnc3ccc(-c4cccc(CO)c4)nn23)c1 [BF000817329, N-[3-[6-[3-(hydroxy-methyl)-phenyl]-imidazo[1,2-b]pyridazin-3-yl]phenyl]-acetamide]
6.67 | – | COc1cc(-c2cc(-c3ccc(N4CCOCC4)cc3)cnc2N)ccc1O [BF000817413, 4-[2-amino-5-(4-morpholino-phenyl)-3-pyridyl]-2-methoxy-phenol]
5.02 | – | COc1ccc(-c2cnc(N)c(-c3ccc(N4CCN(C)CC4)cc3)c2)cc1O [BF000817418, 5-[6-amino-5-[4-(4-methyl-piperazin-1-yl)phenyl]-3-pyridyl]-2-methoxy-phenol]
